Measured values from patent publication US11066412B2, “Substituted pyrrolo[2,1-a]phthalazines and benzo[g]pyrrolo[2,1-a]phthalazines for the treatment of cancer” (Academia Sinica, priority 2017, dated 2021).
Like-named read-outs stand apart in the source and are kept apart here.

Assays:
[1] = test system: human lymphoblastic leukemia cell line (CCRF-CEM); assay: in vitro cytotoxicity, PrestoBlue assay; format: cell-based; conditions: 72-hr incubation; mean ± STDEV of three to six experiments; read-out: IC50 CCRF-CEM
In short: (§1)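 Cells exposed to compounds for 72 hr, then viability read by PrestoBlue after 1-2 hr at 37° C, absorbance 570 and 600 nm.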

colon cancer HCT-116 = assay: in vitro cytotoxicity, PrestoBlue assay; format: cell-based, human; conditions: Table 2
In short: as §1

[2] = test system: non-small cell lung cancer H460; assay: in vitro cytotoxicity, PrestoBlue assay; format: cell-based, human; conditions: Table 2
In short: as §1

pancreatic cancer PacaS1 = assay: in vitro cytotoxicity, PrestoBlue assay; format: cell-based, human; conditions: Table 2
In short: as §1

[3] = test system: vinblastine-resistant sub-cell line (CCRF-CEM/VBL); assay: in vitro cytotoxicity, PrestoBlue assay; format: cell-based, human; conditions: for IC50: 72-hr incubation, mean ± STDEV of three to six experiments, read-out: IC50 CEM/VBL; for resistance factor (IC50 CEM/VBL vs IC50 of the parent cell line): number in brackets
In short: as §1

[4] = test system: small cell lung cancer H526; assay: in vitro cytotoxicity, PrestoBlue assay; format: cell-based, human; conditions: read-out: IC50 H526
pEGFP-N1 plasmid DNA = assay: DNA cross-linking, alkaline agarose gel electrophoresis; format: biochemical; conditions: FIG. 1; for formation of DNA interstrand crosslinks: 1-20 μM, 37° C., 2 hrs
Procedure: In the present example, BO-2590, BO-2577 (Formula I-A) and BO-2698, BO-2755, BO-2762 and BO-2768 (Formula I-B) were tested for their DNA crosslinking activity, in which the cross-linking was analyzed by alkaline agarose gel electrophoresis. In brief, purified pEGFP-N1 plasmid DNA (1,500 ng) was mixed with various concentrations (1-20 μM) of the tested compounds in 40 μL binding buffer (3 mM sodium chloride/1 mM sodium phosphate, pH 7.4, and 1 mM EDTA). The reaction mixture was incubated at 37° C. for 2 hrs. At the end of reaction, the plasmid DNA was linearized by digestion with BamHI and followed by precipitation with ethanol. The DNA pellets were dissolved and denatured in alkaline buffer (0.5 N NaOH-10mM EDTA). An aliquot of 20 μL of DNA solution (1,000 ng) was mixed with 4 μL of 6× alkaline loading dye and then electrophoretically resolved on a 0.8% alkaline agarose gel with NaOH-EDTA buffer at 4° C. The electrophoresis was carried out at 18V for 22 h. After staining the gels with an ethidium bromide solution, the DNA was visualized under UV light. Results are illustrated in FIG. 1.

endothelial cells = assay: transwell migration assay; format: cell-based; conditions: 8 hours; FIG. 4, panel A
Procedure: In the present example, we explored whether compound BO-2590 was able to suppress the cell migration using transwell migration assay.
Briefly, the endothelial cells were placed on the upper layer of a cell permeable membrane and a solution containing BO-2590 was placed below the cell permeable membrane. Following an incubation period (8 hours), the cells that had migrated through the membrane were stained and counted under a fluorescence microscopy.

H460 cell lines = assay: Annexin V staining assay; format: cell-based, human; conditions: 0.5, 1 and 2 μM, 48 hr; FIG. 7
Procedure: In this example, Annexin V staining assay was used to assess BO-2590 induced apoptotic cell death in H460 cell lines. Briefly, H460 cells were treated with BO-2590 at the concentrations of 0.5, 1 and 2 μM for 48 hr and then stained with Annexin V-FITC and propidium iodide. The stained cells were analyzed by flow cytometry.

[5] = test system: human SCLC H526 xenografts; assay: tumor growth in xenograft-bearing nude mice; format: in vivo; conditions: for tumor size: micelle formulation (Kolliphor/TWEEN 80/PEG400/ethanol/D5W), BO-2768 at 20 mg/kg twice daily, FIG. 12, panel A
Procedure: Athymic nude mice bearing the nu/nu gene were obtained from the National Laboratory Animal Center (Taipei, Taiwan). Male nude mice (6 weeks or older weighing 20-24 g or more) were used for all human tumor xenografts. The tested compounds were intravenously administered through tail vein. Tumor volume was determined by measuring the length x width x height (or width) with calipers. […] For tumor-bearing nude mice during the course of the experiment, the % body weight changes refer to: (the total weight on reading day/the total weight on day treatment started)×100.
In all experiments, the tumor cells were subcutaneously implanted in nude mice, and the BO-2590L was administered via tail vein when the tumor size reaching approximate 100 mm^3. […]
To confirm the therapeutic activity of BO-2590L, comparative experiments carried out by known chemotherapeutic agents, such as vatanalib and cisplatin, were also performed. Briefly, the H526 xenograft-bearing mice were divided into 4 groups which were treated with vehicle, BO-2590L (10 mg/kg, QD×9), vatalanib (100 mg/kg, QD×9), and cisplatin (4 mg/kg, Q2D×3), respectively. Results are illustrated in FIG. 11.
Results are illustrated in FIGS. 12 and 13.

[6] = body weight changes of xenograft-bearing nude mice; format: in vivo; conditions: for deleterious effects on the bodyweight of the test animals: micelle formulation, FIG. 12, panel B
Procedure: Athymic nude mice bearing the nu/nu gene were obtained from the National Laboratory Animal Center (Taipei, Taiwan). Male nude mice (6 weeks or older weighing 20-24 g or more) were used for all human tumor xenografts. The tested compounds were intravenously administered through tail vein. Tumor volume was determined by measuring the length x width x height (or width) with calipers. The vehicle used for the tested compounds was normal saline (0.9% NaCl isotonic solution). For tumor-bearing nude mice during the course of the experiment, the % body weight changes refer to: (the total weight on reading day/the total weight on day treatment started)×100.

Row | SMILES | IC50 [1] | IC50 (colon cancer HCT-116) | IC50 [2] | IC50 Paca SI (pancreatic cancer PacaS1) | IC50 [3] | resistance factor (IC50 CEM/VBL vs IC50 of the parent cell line) [3] | IC50 ([4]; Table 2) | formation of DNA interstrand crosslinks (pEGFP-N1 plasmid DNA) | cross-linker strength compared with melphalan (pEGFP-N1 plasmid DNA) | cell migration (endothelial cells) | proportion of Annexin V+ cells (H460 cell lines) | tumor size [5] | deleterious effects on the bodyweight of the test animals ([6]; H526 xenograft mice) | IC50 ([4]; Table 3) | tumor growth ([5]; 20 mg/kg twice per day, entire time of the study, FIG. 13, panel A) | tumor growth, dose dependence ([5]; FIG. 13, panel A) | body weight of the test animals ([6]; H211 xenograft mice, co-administration of BO-2768 and cisplatin, FIG. 14, panel B) | effects on the bodyweight of the test animals ([6]; H526 xenograft mice, 20 mg/kg twice per day, FIG. 13, panel B)
1 | Cc1c(CO)c(CO)c2c3ccccc3c(N3CCC(N4CCCCC4)CC3)nn12 [BO-2590, (6-([1,4′-Bipiperidin]-1′-yl)-3-methylpyrrolo[2,1-α]phthalazine-1,2-diyl)dimethanol] | 230 ± 30 nM | 400 ± 90 nM | 600 ± 110 nM | 300 ± 80 nM | 250 ± 40 nM | 1.09 × | 14 ± 4 nM | induced DNA interstrand crosslinks | relatively stronger cross-linker than that of melphalan | impairment in cell migration | significantly increased the proportion of Annexin V^+ cells in a dose-dependent manner | as effective as irinotecan and cisplatin in reducing the tumor size | none | – | – | – | – | –
2 | Cc1c(CO)c(CO)c2c3cc4ccccc4cc3c(N(C)C)nn12 [BO-2768, (6-(Dimethylamino)-3-methylbenzo[g]pyrrolo[2,1-α]phthalazine-1,2-diyl)dimethanol] | 190 ± 10 nM | 650 ± 20 nM | 1020 ± 160 nM | 3980 ± 1040 nM | 100 ± 10 nM | 0.53 × | 50 ± 1 nM | induced DNA interstrand crosslinks | – | – | – | growth of tumor was completely suppressed | none | 40 ± 5 nM | completely suppress the growth of tumor | suppressed tumor growth in a dose-dependent manner | without adversely affecting the body weight | without any deleterious effects on the bodyweight
